Reference: patent US7361671B2, “Substituted heteroarylalkanoic acids” (The Institute for Pharmaceutical Discovery, Inc., priority 2001, dated 2008)

Columns and labels:
[1] = biological target: human aldose reductase (hALR2) (Homo sapiens, UniProt P15121); experiment: inhibition of human aldose reductase (hALR2) activity, methods similar to Butera et al.; format: biochemical; conditions: concentration to inhibit activity by 50%, read-out: hAR-#1 (aldose)
Description: Representative compounds of the invention are tested for their potency, selectivity and efficacy as inhibitors of human aldose reductase. […] Using this assay, the concentrations required to inhibit human aldose reductase (hALR2) activity by 50% (IC50) are determined.

| Structure (SMILES) | IC50 [1] [nM] | melting point [°C] |
| --- | --- | --- |
| Cc1sc(C)c(Cc2nc3c(F)c(F)cc(F)c3s2)c1CC(=O)O [Example 18, [2,5-Dimethyl-4-(4,5,7-trifluoro-benzothiazol-2-ylmethyl)-thiophen-3-yl]-acetic acid] | 36 | 170 to 171 |
| O=C(O)Cc1cc(Cc2nc3c(F)c(F)cc(F)c3s2)cs1 [Example 21, [4-(4,5,7-Trifluoro-benzothiazol-2-ylmethyl)-thiophen-2-yl]-acetic acid] | 9 | 144 to 146 |
| Cl.O=C(O)Cc1cc(Cc2nc3c(F)c(F)cc(F)c3s2)c(-c2ccccc2)nc1-c1ccccc1 [Example 6, [2,6-Diphenyl-5-(4,5,7-trifluoro-benzothiazol-2-ylmethyl)-pyridin-3-yl]acetic acid hydrochloride] | 11 | 84 to 86 |

Now those with a lower IC50 [1], led by results:

| IC50 [1] [nM] | melting point [°C] | Structure (SMILES) |
| --- | --- | --- |
| 7 | 143 to 145 | CCc1nc(CC)c(Cc2nc3c(F)c(F)cc(F)c3s2)cc1CC(=O)O.Cl [Example 5, [2,6-Diethyl-5-(4,5,7-trifluoro-benzothiazol-2-ylmethyl)-pyridin-3-yl]acetic acid hydrochloride] |
| 7 | 98 to 100 | CCCc1nc(CCC)c(Cc2nc3c(F)c(F)cc(F)c3s2)cc1CC(=O)O.Cl [Example 7, [2,6-Dipropyl-5-(4,5,7-trifluoro-benzothiazol-2-ylmethyl)-pyridin-3-yl]acetic acid hydrochloride] |
